Experiments:
hOCT1 = molecular target: T1, hOCT1 (Homo sapiens, UniProt O15245); assay: Substrate assessment: iohexol uptake in 293 cells expressing hOCT1 vs control; assay type: in vitro ADME; conditions: 10 μM iohexol, median (95% CI)
T1 construct: expressed in transfected cells; host or cells: HEK-293 (293) cells, pEBTetD plasmid, doxycycline-induced
T1 sequence (O15245 1-554): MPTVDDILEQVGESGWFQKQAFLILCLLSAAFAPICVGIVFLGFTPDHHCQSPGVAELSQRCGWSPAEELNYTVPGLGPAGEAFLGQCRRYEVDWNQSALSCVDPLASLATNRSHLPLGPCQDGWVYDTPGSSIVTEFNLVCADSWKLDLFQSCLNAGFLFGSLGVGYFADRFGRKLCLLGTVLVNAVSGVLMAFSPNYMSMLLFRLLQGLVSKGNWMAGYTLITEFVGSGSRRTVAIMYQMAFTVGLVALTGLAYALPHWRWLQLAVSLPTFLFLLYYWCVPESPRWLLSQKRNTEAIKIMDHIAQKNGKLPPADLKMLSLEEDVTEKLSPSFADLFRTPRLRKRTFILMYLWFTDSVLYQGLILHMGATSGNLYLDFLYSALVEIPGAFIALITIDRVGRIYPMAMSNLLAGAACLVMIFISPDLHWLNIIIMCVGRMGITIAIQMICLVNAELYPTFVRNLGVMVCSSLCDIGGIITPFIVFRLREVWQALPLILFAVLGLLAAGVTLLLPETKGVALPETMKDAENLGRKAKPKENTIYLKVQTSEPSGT
From the text: (§1) We characterized the inhibitory potential of iohexol on major drug transporters recommended by regulatory agencies, which were previously assessed in a clinical transporter phenotyping cocktail study. These transporters include hOAT1, hOAT3, hOCT1, hOCT2, hMATE1, hMATE2K, human organic anion transporter polypeptides (hOATP)1B1, hOATP1B3, and human multidrug resistance protein (hMDR)1. Additionally, we investigated whether iohexol is a substrate for any of the renal transporters among these, including hOAT1/3, hOCT1/2, and hMATE1/2K. Cell‐based uptake assays were used to assess the activities of hOAT1/3, hOCT1/2, hMATE1/2K, and hOATP1B1/1B3. Inside‐out membrane vesicle uptake assays were used to evaluate the activity of hMDR1.
For substrate assessments, iohexol was incubated with stably transfected HEK‐293 cells expressing one of the following transporters: hOAT1, hOAT3, hOCT1, hOCT2, hMATE1, or hMATE2K, as well as with control cells lacking transporter expression. Stably transfected cell lines containing pEBTetD plasmids with wild‐type human transporter cDNAs were generated as previously described. Transporter expression was induced by adding 1 μg/mL doxycycline to the growth medium for at least 20 h. Iohexol would be considered a substrate for these transporters if: (1) the ratio of iohexol uptake in cells expressing the transporter to that in control cells was ≥ 2, and (2) a known inhibitor of the transporter reduced iohexol uptake to ≤ 50% at concentrations ≥ 10 times its inhibition constant or half‐maximal inhibitory concentration.
Uptake assays were performed using stably transfected 293 cells, with or without the expression of one of the following transporters: hOAT1, hOAT3, hOCT1, hOCT2, hMATE1, or hMATE2K, as previously described.^1
For the substrate assessment, cells were incubated with 10 µM iohexol for 10 minutes and 30 minutes for each transporter. Inhibition assays were performed using specific standard substrates for each transporter: 10 µM para-aminohippuric acid (PAH) for hOAT1, 3 µM estrone-3-sulfate (E3S) for hOAT3, 50 µM metformin for hOCT1, 5 µM metformin for hOCT2, and 3 µM 1-methyl-4-phenylpyridinium (MPP+) for hMATE1 and hMATE2K. […]
(§2) R version 4.2.1 (R Foundation for Statistical Computing, Vienna, Austria) was used for statistical evaluations and data visualization. The data analysis approach for the in vitro study was detailed by Hsin CH et al..^1 In brief, for transport assays, the initial uptake rate was calculated by normalizing the substrate concentration to both the protein concentration and the incubation time for each dish or well. The transporter-mediated uptake rate (net uptake) was determined by performing an element-wise subtraction of uptake rates from different conditions. […]

hOAT3 = molecular target: T2, hOAT3 (Homo sapiens, UniProt Q8TCC7); assay: Inhibition of hOAT3-mediated E3S uptake, stably transfected 293 cells; assay type: cell-based; conditions: substrate 3 µM E3S, median (95% CI)
T2 construct: expressed in transfected cells; host or cells: HEK-293 (293) cells, pEBTetD plasmid, doxycycline-induced
T2 sequence (Q8TCC7 1-542): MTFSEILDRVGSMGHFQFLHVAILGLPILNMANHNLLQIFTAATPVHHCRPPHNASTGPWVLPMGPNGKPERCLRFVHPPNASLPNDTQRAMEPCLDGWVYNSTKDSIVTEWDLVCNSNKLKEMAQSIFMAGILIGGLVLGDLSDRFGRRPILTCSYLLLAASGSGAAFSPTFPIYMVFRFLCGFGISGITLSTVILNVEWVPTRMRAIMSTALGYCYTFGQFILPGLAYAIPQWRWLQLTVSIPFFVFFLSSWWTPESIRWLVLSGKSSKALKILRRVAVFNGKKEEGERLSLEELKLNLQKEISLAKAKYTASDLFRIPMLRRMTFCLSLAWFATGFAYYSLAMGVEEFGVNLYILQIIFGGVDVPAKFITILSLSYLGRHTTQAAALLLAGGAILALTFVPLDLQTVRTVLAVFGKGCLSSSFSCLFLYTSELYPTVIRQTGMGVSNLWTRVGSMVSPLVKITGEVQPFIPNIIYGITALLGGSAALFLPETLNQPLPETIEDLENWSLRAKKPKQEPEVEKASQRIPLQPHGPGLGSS
From the text: as §1
To determine the maximal inhibitory potential of iohexol, intracellular accumulation of a standard substrate was measured with and without the clinically relevant highest concentrations of iohexol. Control inhibitors were tested in each experiment.
In all subsequent in vitro studies, control experiments were conducted to validate the results. These included positive controls for substrates and inhibitors, as well as cells either without transporter expression or transfected with an empty vector, and control vesicles. Each condition, including cells or vesicles with the transporter and their respective controls, was analyzed in at least three replicates. For detailed information on materials, methods, and data analysis techniques used, refer to the Supporting Information. […]
as §2

## CC(=O)N(CC(O)CO)c1c(I)c(C(=O)NCC(O)CO)c(I)c(C(=O)NCC(O)CO)c1I (stereo not shown) [iohexol]
hOCT1; 10 minutes
  Differences in intracellular accumulation (expression on minus off): 0.16 (-1.8 to 0.79) pmol/mg protein
  Uptake ratio (transporter-expressing vs non-expressing cells): 1 (0.84 to 1.1)
hOCT1; 30 minutes
  Differences in intracellular accumulation (expression on minus off): -0.51 (-1.1 to -0.15) pmol/mg protein
  Uptake ratio (transporter-expressing vs non-expressing cells): 0.89 (0.79 to 0.97)
hOAT3; 20 mM iohexol
  Inhibitory effect (% reduction of specific activity): no notable inhibitory effects
hOAT3; HEK293, 1 mM iohexol, read-out: Inhibitory effect (% reduction of specific activity)
  inhibition at 1000 µM: -4%
hOAT3; HEK293, 20 mM iohexol, read-out: Inhibitory effect (% reduction of specific activity)
  inhibition at 20000 µM: -3.5%
